# Data as given in US20140335154A1, “METHODS AND FORMULATIONS TO ACHIEVE TUMOR TARGETED DOUBLE STRANDED RNA MEDIATED CELL DEATH” (MULTICELL IMMUNOTHERAPEUTICS, INC., priority 2013, published 2014).
# Read-outs that look alike come from different tables or passages of the source.
# Experiments:
# [1] = tested on: human HCC cell line HepG2 and THP-1 cells; experiment: Cell apoptosis/necrosis, Annexin V and PI flow cytometry (FIG. 5B); type: cell-based; details: for cell death: HepG2 and THP-1, 200 μg/ml
# Procedure: (§1) Analysis of Cell Apoptosis/Necrosis: Cells were plated into 24-well plates with the density of 1×10^5 cells/well, and cultured for 48 hours before treatments. The 5 bp polyA:polyU and its analogue, control Poly(A:U) and Poly(I:C) were added at the final concentration of 200 μg/ml into the cell culture supernatants. Cells without treatment were the negative control and the cells treated with 1 μg/ml Lipopolysaccharide (LPS) were the positive control. After incubation for specified time, the cells were harvested and washed with ice-cold PBS, resuspended in 100 μl AnnexinV binding buffer at a concentration of 1×10^5 cells/100 μl and incubated with 2 μl AnnexinV-FITC for 15 minutes at room temperature in the dark. Samples were washed with binding buffer and resuspended again in 100 μl same buffer. After adding 5 μl Propidium Iodide (PI), the samples were diluted with binding buffer and analyzed by flow cytometry (BD Biosciences). Apoptotic cells were identified as an AnnexinV-FITC-positive/PI-negative population.
# (§2) Experiments carried out in vitro compare low molecular weight dsRNAs (<15 bps) with high molecular weight dsRNAs (>70 bps). Data generated with dsRNA of similar size and chemical composition obtained by fractionation, indicate that low molecular weight dsRNAs (<15 bps) have substantial TNFalpha and cell death inducing properties in human monocytic THP-1 cells. […] The pro-inflammatory effect of low molecular weight dsrnas is evaluated by measuring cytokine production using elisa (r&d systems) in FIG. 3a as well as in FIG. 3b. cell proliferation, death, and apoptosis are measured by Ethidium bromide (EB), PI and YoPro staining (in FIG. 1), Fluorescence-Activated Cell Sorting (FACS) analysis and mtt assay, Annexin V and PI staining analyzed by flow cytometry (in FIGS. 3A, 3B, 4A, 4B, 4C, 5A and 5B).
# [2] = tested on: human HCC cell line PLC/PRC/5 and human HCC cell line Huh7; experiment: Cell apoptosis/necrosis, Annexin V and PI flow cytometry (FIG. 5A); type: cell-based; details: for cell death: PLC/PRC/5 and Huh7, 200 μg/ml
# Procedure: as §1, §2
# [3] = tested on: THP-1, PLC/PRC/5, Huh7 and HepG2 cells; experiment: Cytotoxicity, cell death and apoptosis of higher molecular weight dsRNA and controls (FIGS. 3A, 3B, 5A and 5B); type: cell-based
# Procedure: (§3) Analysis of Cytotoxicity and Anti-Proliferative Effect on Cells: Cytotoxicity was measured by MTT assay. Cells were seeded with the density of 5×10^3 cells/well in 96-well plate and incubated for 48 hours in a cell culture incubator, before being treated with compounds. Each compound was dissolved in RNase and DNase free PBS, and diluted to certain concentrations by the same PBS before being added into the cell culture supernatant. The final concentrations of 5 bps pA:pU were 50, 100, 150 and 200 μg/ml, and the gradient of 5 bps pA:pU s analogue was 50, 100, 300, 500 μg/ml. Poly(A:U) and Poly(I:C) were added at the final concentration of 200 μg/ml as controls. Cells without any treatment were the negative control. After incubation for specified times in the cell culture incubator, MTT reagent was added to the cells for the assay as described above.
# Analysis of Cell Apoptosis/Necrosis: Cells were plated into 24-well plates with the density of 1×10^5 cells/well, and cultured for 48 hours before treatments. The 5 bp polyA:polyU and its analogue, control Poly(A:U) and Poly(I:C) were added at the final concentration of 200 μg/ml into the cell culture supernatants. Cells without treatment were the negative control and the cells treated with 1 μg/ml Lipopolysaccharide (LPS) were the positive control. […] After adding 5 μl Propidium Iodide (PI), the samples were diluted with binding buffer and analyzed by flow cytometry (BD Biosciences). […]
# as §2, with “bps).” for “bps). Data generated with dsRNA of similar size and chemical composition obtained by fractionation, indicate that low molecular weight dsRNAs (<15 bps) have substantial TNFalpha and cell death inducing properties in human monocytic THP-1 cells.”
# [4] = tested on: PLC/PRC/5 and THP-1 cells; experiment: TNFalpha and IL-6 induction by higher molecular weight dsRNA and controls (FIGS. 3A, 3B); type: cell-based, human
# Procedure: (§4) Analysis of Cytokines Release: Cells were plated into 96-well plate with the density of 2×10^4 cells/well, cultured and were allowed to become subconfluent. After changing to fresh medium, the cells were treated with 5 bp pA:pU with analogues of 5 bp pA:pU, 70 bp pA:pU, analogues 70 bp pA:pU, or control Poly(A:U) and Poly(I:C) at the final concentration of 100 μg/ml. Cells without treatment were the negative control and cells treated with 1 μg/ml LPS were the positive control. After incubation, the supernatants were collected, centrifuged and then put at −80° C. immediately. Select cytokines, such as IL-6, IL-12(p70), IFN-α2, Tumor Necrosis Factor-α (TNF-α), TNF-related apoptosis-inducing ligand (TRAIL), were analyzed by Bio-Plex Assay kits.
# as §2, with “bps).” for “bps). Data generated with dsRNA of similar size and chemical composition obtained by fractionation, indicate that low molecular weight dsRNAs (<15 bps) have substantial TNFalpha and cell death inducing properties in human monocytic THP-1 cells.”
# [5] = tested on: THP-1 cells; experiment: Cytokine production in THP-1 cells (ELISA / Bio-Plex); type: cell-based, human
# Procedure: as §4, §2
# [6] = tested on: human HCC lines Huh7, PLC/PRF/5, HepG2, primary liver cancer cells P7NSG59410 and P31NSG55368; experiment: MTT cytotoxicity and anti-proliferative effect on human liver cancer cells (FIGS. 4A, 4B); type: cell-based
# Procedure: Analysis of Growth Curve: Cell lines were seeded at different initial densities in the 96-well plate for 7 days. The medium was changed every day. The viability and metabolic rate of cultured cells was determined daily by assaying the reduction of 3-(4,5-dimethyl thiazol-2-yl)-2,5-diphenyl tetrazolium bromide (MTT) to formazan. After incubation period, MTT was added into each well in final concentration of 0.5 mg/ml, and incubated at the same condition for 4 h. Then the formazan was collected and dissolved in 120 ul DMSO. The absorption was measured at 560-562 nm in an ELISA reader with 620 nm as reference wave.
# as §3
# as §2, with “bps).” for “bps). Data generated with dsRNA of similar size and chemical composition obtained by fractionation, indicate that low molecular weight dsRNAs (<15 bps) have substantial TNFalpha and cell death inducing properties in human monocytic THP-1 cells.”
# [7] = tested on: mouse liver cancerous cell line BNL 1ME A.7R.1; experiment: MTT cytotoxicity on mouse liver cancerous cell line (FIG. 4B); type: cell-based; details: dose-effect
# Procedure: as §3
# [8] = tested on: human HCC cell line PLC/PRC/5; experiment: Cytokine production in HCC cell line PLC/PRC/5; type: cell-based; details: for TNFalpha induction: PLC/PRC/5 cancer cells
# Procedure: as §4, §2
# [9] = tested on: cell line emulating normal hepatocytes; experiment: TNF-alpha production in a cell line emulating normal hepatocytes; type: cell-based, human
# Procedure: as §4
# [10] = tested on: THP-1 cells; experiment: MTT cytotoxicity on THP-1 cells (FIG. 4C); type: cell-based, human; details: THP-1, dose-effect
# Procedure: as §3, with “After incubation for specified times in the cell culture incubator, MTT reagent was added to the cells for the assay as described above.” left out
# as §2, with “bps).” for “bps). Data generated with dsRNA of similar size and chemical composition obtained by fractionation, indicate that low molecular weight dsRNAs (<15 bps) have substantial TNFalpha and cell death inducing properties in human monocytic THP-1 cells.”
# [11] = tested on: THLE2 cells; experiment: MTT cytotoxicity on THLE2 cells emulating normal human liver cells (FIG. 4C); type: cell-based
# Procedure: as §3
# [12] = tested on: human primary fibroblasts; experiment: MTT cytotoxicity on human primary fibroblasts (FIG. 4C); type: cell-based
# Procedure: as §3
# [13] = tested on: human liver cancer cell lines Huh7 and HepG2; experiment: MTT assay of Lipofectamine formulated vs unformulated pA:pU (FIG. 6); type: cell-based; details: Huh7 and HepG2, 24 hour treatment
# Procedure: In one embodiment, 5 bp dsRNAs are formulated using Lipofectamine 2000 to form lipid-based nanoparticles. One exemplary method follows the steps of: 1) in a microfuge tube 1.5 ul of Lipofectamine was diluted to a final volume of 23.5 ul using the appropriate media (per cell type); 2) 25 ul of the appropriate 5 bp dsRNAs analog dilution (to achieve the desired final per well concentration) was added to the diluted Lipofectamine and the mixture was incubated at Room Temperature (RT) for 5 minutes to form lipo-complexes; 3) 250 ul of the appropriate media was added to achieve a final volume of 300 ul; 4) 100 ul of the mixture from step 3 was added to each replicate and the cells was incubated for 24 hours.
# Huh7 and HepG2 Cells were plated in a 96 well plate at a density of 2500 cells per well. Cells were incubated for 24 hours. After 24 hours of incubation, the medium was removed and cells were treated with various formulations of 5 bp pA:pU in triplicate in their respective culture mediums with […] 10% FBS. Untreated cells and Dox (10 uM) were used as controls. Cells were incubated for an additional 24 hours. After the 24 hour drug treatment, the medium was removed. Fresh culture medium will be added and the MTT assay was performed using the Life Technologies Vybrant MTT kit. […] The plate was read at 570 nm.
# [14] = Huh7, PLC/PRF/5, HepG2, P7NSG59410, P31NSG55368
substance,measurement,setting,value
"polyinosinic:polycytidylic acid [pI:pC, reference compound]",cytotoxicity or anti-proliferative effect,[1]; HepG2 and THP-1,no cytotoxicity or anti-proliferative effect
same,cell death,[1],minimal cell death or apoptosis
same,cytotoxicity or anti-proliferative effect,[2]; PLC/PRC/5 and Huh7,no cytotoxicity or anti-proliferative effect
same,cell death,[2],minimal cell death or apoptosis
same,cell death or apoptosis,"[3]; FIGS. 3A, 3B, 5A and 5B",minimal cell death or apoptosis
same,cytotoxicity or anti-proliferative effect,"[3]; FIGS. 3A, 3B, 5A and 5B",no cytotoxicity or anti-proliferative effect
same,IL-6 inducing capabilities,[4],negligible
same,TNFalpha inducing capabilities,[4],negligible
2O′-methyl analogue of 5 base pairs polyA:polyU,cell death,[1],attenuated cytotstatic/cytotoxic profile
same,cell death,[2],attenuated cytotstatic/cytotoxic profile
same,cytokine production by monocytes,[5]; relative to native 5 bps pA:pU,attenuated
same,cell growth inhibition and death inducing properties,[6]; [14],significantly attenuated
same,cell growth inhibition and death inducing properties,"[6]; Huh7, PLC/PRF/5, HepG2, P7NSG59410, P31NSG55368, listed as 2O′-methyl analogue",less potent
same,cell growth inhibition and death inducing properties,[7],attenuated cytotstatic/cytotoxic profile
same,TNFalpha induction,[8],elevated
5 base pairs polyadenylic-polyuridylic acid [5 bps pA:pU],cell death,[1],induces cell death
same,TNF-alpha production,[9],blunted
same,cell death,[2],induces cell death
same,cell growth inhibition and death inducing properties,[10]; listed as low molecular weight dsRNA (5 bps),"anti-proliferative, pro-death effect"
same,cell growth inhibition and death inducing properties,[10]; listed as polyA:polyU of 5 bps,cell growth inhibition and death inducing properties
same,primary mechanism of cytotoxicity,[3],"cytolysis, with a minimal apoptosis component"
same,IL-6 induction,[5]; THP-1 cells,substantially induced
same,TNFalpha induction,[5]; THP-1 cells,substantially induced
same,cell growth inhibition and death inducing properties,[6]; [14],cell growth inhibition and death inducing properties
same,cell growth inhibition and death inducing properties,[7],cell growth inhibition and death inducing properties
same,cytotoxicity on cells emulating normal human liver cells,[11],only a modest effect
same,cytotoxicity on cells emulating normal human liver cells,[11]; listed as 5 bp polyA:polyU,more refractory
same,cytotoxicity on cells emulating normal human liver cells,[11]; listed as low molecular weight dsRNA of 5 bps,more attenuated cytotoxicity profile
same,cytotoxic or anti-proliferative effect on fibroblasts,[12],cytotoxic or anti-proliferative effect
same,cytotoxic or anti-proliferative effect on fibroblasts,[12]; listed as 5 bp polyA:polyU,sensitive
same,TNFalpha induction,[8],substantially induced
same,IL-6 induction,[8]; PLC/PRC/5 cells,substantially induced
same,biological activity in MTT assay,[13],more biologically active than 15 bps
